A word on the DC50: it is the midpoint of the concentration-degradation curve. Usually bioavailability stands for dose-corrected exposure relative to a reference, in per cent. A low value points to little systemic uptake. One may read the Tmax as the time from dosing to the highest level. What is called Cmax is the peak of the concentration-time curve. What is called AUC(0-t) is the area under the concentration-time curve up to a stated or last time point. A lower AUC(0-t) goes with low exposure. As a reminder, the half-life is the time needed for the level to fall by half in the phase considered. The low end stands for rapid decline, the high end for slow decline. What is called Emax is the size of the effect at its maximum, as opposed to the concentration needed.

The structures appear in SMILES notation.

For series [1], the target named is von Hippel-Lindau disease tumor suppressor/Bromodomain-containing protein 9 (Homo sapiens, UniProt Q9H8M2+P40337). Description: PROTAC activity at VHL/BRD9 in human HeLa cells assessed as induction of protein degradation […]. The series is classed as cell-based.
Series [2] is described as follows: Oral bioavailability in mouse. The conditions noted are these: in vivo. The series is classed as ADME, organism-based.
Series [3] addresses von Hippel-Lindau disease tumor suppressor/Polycomb protein EED (Homo sapiens, UniProt O75530+P40337). Description: PROTAC activity at VHL/EED in human DB cells assessed as degradation of EED protein expression incubated for 24 hrs by Western blotting analysis. The series is classed as cell-based. In general terms: In western blotting, separated proteins are transferred to a membrane and probed.

The target in series [4] is von Hippel-Lindau disease tumor suppressor/Histone-lysine N-methyltransferase EZH2 (Homo sapiens, UniProt Q15910+P40337). The series is described as follows: PROTAC activity against VHL/wild type EZH2 in human DB cells assessed as degradation of EZH2 protein expression incubated for 24 hrs by Western blot analysis. The series is classed as cell-based.
Series [5] has as its target von Hippel-Lindau disease tumor suppressor/Histone-lysine N-methyltransferase EZH2 (Homo sapiens, UniProt Q15910+P40337, Y641N). The series is described as follows: PROTAC activity against VHL/EZH2 Y641N mutant in human DB cells assessed as degradation of EZH2 protein expression incubated for 24 hrs by Western blot analysis. In kind it is cell-based.
Series [6] in a line: Tmax in Sprague-Dawley rat at 40 mg/kg, IG measured up to 24 hrs by LC-MS/MS analysis. In kind it is ADME, organism-based. As to conditions: in vivo, po.
Series [7] can be described thus: Cmax in Sprague-Dawley rat at 40 mg/kg, po measured after 24 hrs by LC-MS/MS analysis. The series is classed as ADME, organism-based. The conditions noted are these: in vivo.
Series [8] is described as follows: AUC (0 to t) in Sprague-Dawley rat at 40 mg/kg, IG measured up to 24 hrs by LC-MS/MS analysis. As to conditions: in vivo, po. The series is classed as ADME, organism-based.
Series [9] is described as follows: Half life in Sprague-Dawley rat at 40 mg/kg, po measured after 24 hrs by LC-MS/MS analysis. In kind it is ADME, organism-based. As to conditions: in vivo.
The nature of series [10]: Oral bioavailability in Sprague-Dawley rat at 40 mg/kg measured up to 24 hrs by LC-MS analysis. The series is classed as ADME, organism-based. The conditions noted are these: in vivo.
Series [11] has as its target T1, Protein cereblon/Leucine-rich repeat serine/threonine-protein kinase 2 (Homo sapiens, UniProt Q5S007+Q96SW2). Description: PROTAC activity at CRBN/LRRK2 in human MOLT-4 cells assessed as induction of LRRK2 degradation at 1 uM by Western blot analysis relative to control. In kind it is cell-based.
Target sequence in this assay (Q5S007 whole entry, looked up): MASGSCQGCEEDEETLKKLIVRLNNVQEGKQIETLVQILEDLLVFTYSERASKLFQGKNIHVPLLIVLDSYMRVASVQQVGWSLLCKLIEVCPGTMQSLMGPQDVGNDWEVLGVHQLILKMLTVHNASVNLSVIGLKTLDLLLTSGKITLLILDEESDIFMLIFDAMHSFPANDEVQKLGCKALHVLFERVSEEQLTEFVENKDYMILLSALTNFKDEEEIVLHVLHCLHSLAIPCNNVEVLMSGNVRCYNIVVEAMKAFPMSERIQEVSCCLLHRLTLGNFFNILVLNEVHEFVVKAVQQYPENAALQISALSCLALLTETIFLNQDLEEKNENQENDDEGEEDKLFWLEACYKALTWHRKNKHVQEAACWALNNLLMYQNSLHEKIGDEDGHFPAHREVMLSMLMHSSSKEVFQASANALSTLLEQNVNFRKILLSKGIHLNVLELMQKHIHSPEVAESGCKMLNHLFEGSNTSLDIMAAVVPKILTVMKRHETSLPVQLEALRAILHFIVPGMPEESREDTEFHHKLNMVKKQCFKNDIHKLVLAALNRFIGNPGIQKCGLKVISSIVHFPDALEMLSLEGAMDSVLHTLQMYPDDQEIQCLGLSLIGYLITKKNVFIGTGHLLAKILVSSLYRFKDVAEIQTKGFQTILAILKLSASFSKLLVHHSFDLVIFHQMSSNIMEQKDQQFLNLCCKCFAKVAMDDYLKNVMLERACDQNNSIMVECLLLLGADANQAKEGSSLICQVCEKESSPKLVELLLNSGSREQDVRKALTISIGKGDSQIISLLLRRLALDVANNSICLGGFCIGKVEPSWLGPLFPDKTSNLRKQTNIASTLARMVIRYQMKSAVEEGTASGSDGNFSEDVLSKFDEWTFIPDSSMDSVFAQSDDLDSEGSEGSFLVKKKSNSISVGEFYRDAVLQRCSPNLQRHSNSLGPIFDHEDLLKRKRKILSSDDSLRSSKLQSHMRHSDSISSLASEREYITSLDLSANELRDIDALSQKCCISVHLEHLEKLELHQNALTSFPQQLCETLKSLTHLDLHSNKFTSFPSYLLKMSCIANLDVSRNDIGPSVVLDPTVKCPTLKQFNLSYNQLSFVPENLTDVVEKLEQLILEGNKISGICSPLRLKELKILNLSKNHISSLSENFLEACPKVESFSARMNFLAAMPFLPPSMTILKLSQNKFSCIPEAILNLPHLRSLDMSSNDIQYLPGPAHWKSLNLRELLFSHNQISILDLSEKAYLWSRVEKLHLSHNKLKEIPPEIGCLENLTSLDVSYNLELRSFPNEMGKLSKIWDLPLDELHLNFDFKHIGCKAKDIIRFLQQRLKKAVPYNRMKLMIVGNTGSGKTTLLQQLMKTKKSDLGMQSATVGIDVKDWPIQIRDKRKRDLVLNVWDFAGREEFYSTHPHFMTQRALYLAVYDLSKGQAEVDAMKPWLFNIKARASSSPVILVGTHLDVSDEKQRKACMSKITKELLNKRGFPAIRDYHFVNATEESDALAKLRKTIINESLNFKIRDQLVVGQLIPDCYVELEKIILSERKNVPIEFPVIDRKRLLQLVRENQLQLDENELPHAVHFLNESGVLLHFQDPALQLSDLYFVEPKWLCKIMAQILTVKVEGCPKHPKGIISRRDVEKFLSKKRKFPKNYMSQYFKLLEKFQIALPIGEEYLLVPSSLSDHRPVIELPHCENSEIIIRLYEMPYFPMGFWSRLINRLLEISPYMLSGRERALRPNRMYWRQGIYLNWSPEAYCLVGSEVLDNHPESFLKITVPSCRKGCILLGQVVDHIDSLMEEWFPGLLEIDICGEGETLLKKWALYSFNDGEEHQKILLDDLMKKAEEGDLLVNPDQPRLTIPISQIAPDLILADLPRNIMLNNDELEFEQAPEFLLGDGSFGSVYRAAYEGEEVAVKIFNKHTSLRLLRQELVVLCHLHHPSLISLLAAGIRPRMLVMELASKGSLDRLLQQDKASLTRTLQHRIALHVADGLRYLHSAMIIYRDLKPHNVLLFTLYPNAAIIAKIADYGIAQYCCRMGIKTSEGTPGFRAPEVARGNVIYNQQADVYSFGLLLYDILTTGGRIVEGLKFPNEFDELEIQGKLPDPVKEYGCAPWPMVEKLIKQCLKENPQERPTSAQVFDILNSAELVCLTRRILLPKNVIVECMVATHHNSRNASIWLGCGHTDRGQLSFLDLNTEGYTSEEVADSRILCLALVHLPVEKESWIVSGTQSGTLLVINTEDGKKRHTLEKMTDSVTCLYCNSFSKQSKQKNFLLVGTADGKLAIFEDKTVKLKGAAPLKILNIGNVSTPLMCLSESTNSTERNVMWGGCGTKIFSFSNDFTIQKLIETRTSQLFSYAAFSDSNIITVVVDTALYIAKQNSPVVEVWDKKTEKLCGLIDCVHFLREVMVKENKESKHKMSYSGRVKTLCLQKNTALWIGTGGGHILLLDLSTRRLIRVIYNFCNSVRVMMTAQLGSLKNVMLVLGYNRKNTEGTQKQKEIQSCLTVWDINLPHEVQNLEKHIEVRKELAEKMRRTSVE
Target sequence in this assay (Q96SW2 whole entry, looked up): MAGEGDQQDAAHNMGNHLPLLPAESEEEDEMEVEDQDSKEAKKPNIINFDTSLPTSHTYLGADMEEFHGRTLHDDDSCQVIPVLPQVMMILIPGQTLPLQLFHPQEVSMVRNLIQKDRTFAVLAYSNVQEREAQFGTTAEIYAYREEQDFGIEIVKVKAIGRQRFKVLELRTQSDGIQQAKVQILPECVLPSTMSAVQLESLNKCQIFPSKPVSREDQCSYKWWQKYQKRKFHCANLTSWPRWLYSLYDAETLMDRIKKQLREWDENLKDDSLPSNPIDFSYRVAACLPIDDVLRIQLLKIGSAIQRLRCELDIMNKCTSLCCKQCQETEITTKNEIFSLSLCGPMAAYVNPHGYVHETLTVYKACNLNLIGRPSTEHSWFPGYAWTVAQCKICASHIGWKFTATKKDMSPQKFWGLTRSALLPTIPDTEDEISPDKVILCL
Series [12] can be described thus: AUC (0 to t) in ICR mouse at 30 mg/kg, po measured upto 24 hrs by HPLC-MS/MS analysis. As to conditions: in vivo. The series is classed as ADME, organism-based.
The nature of series [13]: Oral availability in ICR mouse at 30 mg/kg by HPLC-MS/MS analysis. The conditions noted are these: in vivo. The series is classed as ADME, organism-based.
The target of series [14] is T1, Protein cereblon/Leucine-rich repeat serine/threonine-protein kinase 2. The series is described as follows: PROTAC activity at CRBN/LRRK2 in human MOLT-4 cells assessed as induction of LRRK2 degradation incubated for 48 hrs by Western blot analysis. In kind it is cell-based.
Target sequence in this assay (Q5S007 whole entry): as the sequence (Q5S007 whole entry, looked up) above
Target sequence in this assay (Q96SW2 whole entry): as the sequence (Q96SW2 whole entry, looked up) above
The nature of series [15]: AUC (0 to t) in C57BL/6 mouse at 30 mg/kg, po by LC-MS/MS analysis. The series is classed as ADME, organism-based. As to conditions: in vivo.
The nature of series [16]: Tmax in C57BL/6 mouse at 30 mg/kg, po by LC-MS/MS analysis. The series is classed as ADME, organism-based. As to conditions: in vivo.
Series [17] in a line: Half life in C57BL/6 mouse at 30 mg/kg, po by LC-MS/MS analysis. The series is classed as ADME, organism-based. The conditions noted are these: in vivo.
The nature of series [18]: Cmax in C57BL/6 mouse at 30 mg/kg, po by LC-MS/MS analysis. The series is classed as ADME, organism-based. The conditions noted are these: in vivo.
Series [19] in a line: Cmax in CD-1 mouse plasma at 10 mg/kg, po by LC-MS/MS analysis. In kind it is ADME, organism-based.
Series [20] is described as follows: Half life in CD-1 mouse at 10 mg/kg, po measured for 24 hrs by LC-MS/MS analysis. In kind it is ADME, organism-based. The conditions noted are these: in vivo.
Series [21] is described as follows: AUC (0 to t) in CD-1 mouse at 10 mg/kg, po measured for 24 hrs by LC-MS/MS analysis. In kind it is ADME, organism-based. The conditions noted are these: in vivo.
Series [22] can be described thus: AUC (0 to t) in BALB/c mouse at 30 mg/kg measured for 24 hrs by UPLC-MS/MS analysis. In kind it is ADME, organism-based. As to conditions: in vivo.
Series [23] in a line: Oral bioavailability in BALB/c mouse at 30 mg/kg measured for 24 hrs by UPLC-MS/MS analysis. In kind it is ADME, organism-based. As to conditions: in vivo.
The nature of series [24]: Cmax in BALB/c mouse at 30 mg/kg measured for 24 hrs by UPLC-MS/MS analysis. The series is classed as ADME, organism-based. The conditions noted are these: in vivo.
Series [25] in a line: Tmax in BALB/c mouse at 30 mg/kg measured for 24 hrs by UPLC-MS/MS analysis. The conditions noted are these: in vivo. The series is classed as ADME, organism-based.

Sequence of von Hippel-Lindau disease tumor suppressor/Polycomb protein EED (O75530 whole entry): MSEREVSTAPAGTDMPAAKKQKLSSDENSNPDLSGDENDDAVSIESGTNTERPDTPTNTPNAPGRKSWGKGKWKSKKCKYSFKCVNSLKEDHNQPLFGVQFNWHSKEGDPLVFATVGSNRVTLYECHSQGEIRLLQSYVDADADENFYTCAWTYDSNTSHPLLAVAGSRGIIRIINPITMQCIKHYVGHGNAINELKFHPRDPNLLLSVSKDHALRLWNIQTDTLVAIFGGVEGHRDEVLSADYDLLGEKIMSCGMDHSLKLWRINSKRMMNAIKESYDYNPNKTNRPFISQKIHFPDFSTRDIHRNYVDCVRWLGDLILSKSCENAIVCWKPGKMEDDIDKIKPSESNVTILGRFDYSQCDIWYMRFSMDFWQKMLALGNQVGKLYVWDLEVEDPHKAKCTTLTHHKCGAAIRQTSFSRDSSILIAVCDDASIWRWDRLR
Sequence of von Hippel-Lindau disease tumor suppressor/Polycomb protein EED (P40337 whole entry): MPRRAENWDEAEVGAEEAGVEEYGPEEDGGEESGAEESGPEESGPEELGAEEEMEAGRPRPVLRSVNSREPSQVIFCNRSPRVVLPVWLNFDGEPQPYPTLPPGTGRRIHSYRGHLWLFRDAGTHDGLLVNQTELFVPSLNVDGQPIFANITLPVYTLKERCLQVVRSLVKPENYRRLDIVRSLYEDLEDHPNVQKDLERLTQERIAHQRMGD
Sequence of von Hippel-Lindau disease tumor suppressor/Histone-lysine N-methyltransferase EZH2 (Homo sapiens, UniProt Q15910+P40337, Y641N) (P40337 whole entry, stated change not applied): as the sequence (P40337 whole entry) above
Sequence of von Hippel-Lindau disease tumor suppressor/Histone-lysine N-methyltransferase EZH2 (Homo sapiens, UniProt Q15910+P40337, Y641N) (Q15910 whole entry Y641N, stated change not applied): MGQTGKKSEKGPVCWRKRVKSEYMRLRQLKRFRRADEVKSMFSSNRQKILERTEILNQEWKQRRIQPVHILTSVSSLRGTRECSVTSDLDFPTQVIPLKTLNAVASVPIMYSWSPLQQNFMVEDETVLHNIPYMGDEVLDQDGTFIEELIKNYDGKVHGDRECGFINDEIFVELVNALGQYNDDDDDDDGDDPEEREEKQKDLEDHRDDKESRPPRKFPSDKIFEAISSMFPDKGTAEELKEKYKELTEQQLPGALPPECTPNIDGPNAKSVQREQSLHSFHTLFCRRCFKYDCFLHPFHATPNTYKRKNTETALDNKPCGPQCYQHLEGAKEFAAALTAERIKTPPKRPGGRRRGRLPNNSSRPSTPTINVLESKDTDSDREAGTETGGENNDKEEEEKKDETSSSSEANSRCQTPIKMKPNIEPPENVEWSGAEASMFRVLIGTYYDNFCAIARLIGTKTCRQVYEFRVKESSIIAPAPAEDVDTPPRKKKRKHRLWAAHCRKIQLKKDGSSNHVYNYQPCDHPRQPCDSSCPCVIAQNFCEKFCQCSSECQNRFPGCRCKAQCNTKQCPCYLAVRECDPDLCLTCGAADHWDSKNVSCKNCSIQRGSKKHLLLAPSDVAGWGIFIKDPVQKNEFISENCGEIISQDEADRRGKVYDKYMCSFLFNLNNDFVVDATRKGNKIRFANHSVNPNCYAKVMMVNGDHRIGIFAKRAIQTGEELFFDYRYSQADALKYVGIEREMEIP
Sequence of von Hippel-Lindau disease tumor suppressor/Histone-lysine N-methyltransferase EZH2 (Homo sapiens, UniProt Q15910+P40337) (Q15910 whole entry): as the sequence (Q15910 whole entry Y641N, stated change not applied) above, with N641Y counted along it
Sequence of von Hippel-Lindau disease tumor suppressor/Histone-lysine N-methyltransferase EZH2 (Homo sapiens, UniProt Q15910+P40337) (P40337 whole entry): as the sequence (P40337 whole entry) above

With `COc1cc(-c2cn(C)c(=O)c3[nH]ncc23)cc(OC)c1CN1CCN(C(=O)CN2CCC(c3ccc(NC4CCC(=O)NC4=O)cc3)CC2)CC1` (stereo unspecified), the 50% degradation concentration (DC50) in [1] amounted to 5 nM. Also, the bioavailability in series [2] is less than 1%.
Take `Cc1ncsc1-c1ccc(CNC(=O)[C@@H]2C[C@@H](O)CN2C(=O)[C@@H](NC(=O)[C@H]2C[C@@H](NC(=O)c3ccc(-c4cnc(NCc5ccco5)n5cnnc45)cc3)C2)C(C)(C)C)cc1`: the DC50 is 111 nM in [3], 275 nM in series [4] and 275 nM in [5].
Take `N#Cc1cccc(-c2ccc(=O)n(Cc3cccc(-c4ncc(OCC5CCN(CC(=O)N6CCN(c7ccc8c(c7)C(=O)N(C7CCC(=O)NC7=O)C8=O)CC6)CC5)cn4)c3)n2)c1` (stereo unspecified): the Tmax in [6] was 1.75 h. In series [7], this molecule returned a Cmax of 8.47 ng/mL. The AUC(0-t) at 24 h in series [8] worked out at 74.2 ng·h/mL. The same molecule gave a half-life in series [9] of 15.8 h. Besides, in series [10], the bioavailability stood at 0.7%.
Turning to `C[C@@H]1C=C2C=C[C@@H](C)[C@@H](CC[C@@H]3C[C@@H](O)CC(=O)O3)[C@@H]2[C@H](OC(=O)NCCOCCOCCNc2cccc3c2C(=O)N(C2CCC(=O)NC2=O)C3=O)C1` (stereo partly specified), the Emax in series [11] came out at 44%.
`Cc1ncsc1-c1ccc([C@H](CC[C@H](C)CCN2CCC(c3ccc4c(c3)n(C3CCCC3)c3nc(=O)c5c(Br)cccc5n43)CC2)NC(=O)[C@@H]2C[C@@H](O)CN2C(=O)[C@@H](NC(=O)C2(F)CC2)C(C)(C)C)cc1` showed an AUC(0-t) at 24 h in series [12] of 50000 ng·h/mL. In addition, the bioavailability in series [13] came out at 22%.
Regarding `Cc1ncsc1-c1ccc(CNC(=O)[C@@H]2C[C@@H](O)CN2C(=O)[C@@H](NC(=O)CCCCCCCCCCNC(=O)OC2C[C@@H](C)C=C3C=C[C@H](C)[C@H](CC[C@@H](O)C[C@H](O)CC(=O)O)[C@H]32)C(C)(C)C)cc1` (stereo partly specified), the half-maximal degradation concentration (DC50) in series [14] worked out at 120 nM. The Emax in [11] came to 65%.
In turn, `Cc1ncsc1-c1ccc(CNC(=O)[C@@H]2C[C@@H](O)CN2C(=O)[C@@H](NC(=O)CCCCCCCCCCNC(=O)OC2C[C@@H](C)C=C3C=C[C@H](C)[C@H](CC[C@@H]4C[C@H](O)CC(=O)O4)[C@H]32)C(C)(C)C)cc1` (stereo partly specified) returned an AUC(0-t) in [15] of 5000 ng·h/mL. In addition, the Tmax in series [16] came to 8 h. Further, the half-life in series [17] was 5.1 h. In [18], this molecule registered a Cmax of 470 ng/mL.
In turn, `COc1cc(N2CCC(N3CCN(CCC#Cc4cccc5c4CN(C4CCC(=O)NC4=O)C5=O)CC3)CC2)ccc1Nc1ncc(Cl)c(Nc2ccccc2P(C)(C)=O)n1` (stereo unspecified) yielded a peak concentration (Cmax) in series [19] of 3680 ng/mL. Moreover, the half-life in series [20] is 2.08 h. The molecule also returned an AUC(0-t) at 24 h in series [21] of 19700 ng·h/mL.
Consider `Cc1ncsc1-c1ccc(CNC(=O)[C@@H]2C[C@@H](O)CN2C(=O)[C@@H](NC(=O)COCCCCOc2ccc(C3CCN(C4=Nn5c(nnc5C(F)(F)F)CC4)CC3)cc2)C(C)(C)C)cc1`, for which the AUC(0-t) at 24 h in [22] is 18000 ng·h/mL. The molecule further returned a bioavailability in series [23] of 23%. The molecule further showed a Cmax in series [24] of 7060 ng/mL. The Tmax in series [25] amounted to 1.67 h.

(Values after ChEMBL document CHEMBL5512598, “Current advances and development strategies of orally bioavailable PROTACs” (Eur J Med Chem, 2023).)
